Tests used:
Assay type in all cases: in vivo
Conditions in all cases: rating 0-100 (0 no damage, 100 complete death), 14 days after application
[1] = system: redroot pigweed (Amaranthus retroflexus, AMARE); assay: Pre-emerge herbicidal activity, greenhouse screen, AMARE
Source text: (§1) A standard greenhouse herbicide activity screening system was used to evaluate the herbicidal efficacy and crop safety of these test compounds. Seven broadleaf weed species including redroot pigweed (Amaranthus retroflexus, AMARE), velvetleaf (Abutilon theophrasti, ABUTH), sicklepod (Cassia obtusifolia, CASOB), ivyleaf morningglory (Ipomoea hederacea, IPOHE), lambsquarters (Chenopodium album, CHEAL), common ragweed (Ambrosia artemisiifolia L., AMBEL), and cocklebur (Xanthium strumarium, XANST) were used as test species. Four grass weed species including green foxtail (Setaria viridis, SETVI), barnyardgrass (Echinochloa crus-galli, ECHCG), johnsongrass (Sorghum halepense, SORHA), and large crabgrass (Digitaria sanguinalis, DIGSA) were also used. In addition, three crop species, field corn (Zea mays L., var. Dekalb 527, CORN), soybean (Glycine max L., var. Pella 86, SOY), and upland rice (Oryza sp., var. Tebonnet, RICE) were included.
(§2) All plants were grown in 10 cm square plastic pots which were filled with a sandy loam soil mix. For pre-emerge tests, seeds were planted one day prior to application of the test compounds. For post-emerge tests, seeds were planted 8-21 days prior to the test to allow emergence and good foliage development prior to application of the test substances. At the time of the post-emerge application, plants of all species were usually at the 2-3 leaf stage of development.
(§3) All test compounds were dissolved in acetone and applied to the test units in a volume of 187 l/ha. Test materials were applied at rates ranging from 15 g ai/ha to 1000 g ai/ha using a track sprayer equipped with a TJ8001 E even flow flat fan spray nozzle. Plants were arranged on a shelf so that the top of the canopy (post-emerge) or top of the soil surface (pre-emerge) was 40-45 cm below the nozzle. Pressurized air was used to force the test solution through the nozzle as it was mechanically advanced over the top of all test plants/pots. This application simulates a typical commercial field herbicide application.
(§4) In the post-emerge test, a commercial non-ionic surfactant was also included (0.25% v/v) to enhance wetting of the leaf surfaces of target plants. Immediately after application, test units of the pre-emerge applications were watered at the soil surface to incorporate the test materials.
(§5) At 14 days after application of the test materials, phytotoxicity ratings were recorded. A rating scale of 0-100 was used as previously described in Research Methods in Weed Science, 2nd edition, B. Truelove, Ed., Southern Weed Science Society, Auburn University, Auburn, Ala., 1977. Briefly, “0” corresponds to no damage and “100” corresponds to complete death of all plants in the test unit. This scale was used both to determine efficacy against weed species and damage to crop species. Herbicide activity data for various compounds of this invention, which are shown by compound No. in Tables 1-7, are shown in Tables 8 and 9.

[2] = system: velvetleaf (Abutilon theophrasti, ABUTH); assay: Pre-emerge herbicidal activity, greenhouse screen, ABUTH
Source text: as §1, §2, §3, §4, §5

[3] = system: sicklepod (Cassia obtusifolia, CASOB); assay: Pre-emerge herbicidal activity, greenhouse screen, CASOB
Source text: as §1, §2, §3, §4, §5

[4] = system: ivyleaf morningglory (Ipomoea hederacea, IPOHE); assay: Pre-emerge herbicidal activity, greenhouse screen, IPOHE
Source text: as §1, §2, §3, §4, §5

[5] = system: lambsquarters (Chenopodium album, CHEAL); assay: Pre-emerge herbicidal activity, greenhouse screen, CHEAL
Source text: as §1, §2, §3, §4, §5

[6] = system: common ragweed (Ambrosia artemisiifolia L., AMBEL); assay: Pre-emerge herbicidal activity, greenhouse screen, AMBEL
Source text: as §1, §2, §3, §4, §5

[7] = system: green foxtail (Setaria viridis, SETVI); assay: Pre-emerge herbicidal activity, greenhouse screen, SETVI
Source text: as §1, §2, §3, §4, §5

[8] = system: barnyardgrass (Echinochloa crus-galli, ECHCG); assay: Pre-emerge herbicidal activity, greenhouse screen, ECHCG
Source text: as §1, §2, §3, §4, §5

[9] = system: johnsongrass (Sorghum halepense, SORHA); assay: Pre-emerge herbicidal activity, greenhouse screen, SORHA
Source text: as §1, §2, §3, §4, §5

[10] = system: large crabgrass (Digitaria sanguinalis, DIGSA); assay: Pre-emerge herbicidal activity, greenhouse screen, DIGSA
Source text: as §1, §2, §3, §4, §5

[11] = system: redroot pigweed (Amaranthus retroflexus, AMARE); assay: Post-emerge herbicidal activity, greenhouse screen, AMARE
Source text: as §1, §2, §3, §4, §5

[12] = system: velvetleaf (Abutilon theophrasti, ABUTH); assay: Post-emerge herbicidal activity, greenhouse screen, ABUTH
Source text: as §1, §2, §3, §4, §5

[13] = system: sicklepod (Cassia obtusifolia, CASOB); assay: Post-emerge herbicidal activity, greenhouse screen, CASOB
Source text: as §1, §2, §3, §4, §5

[14] = system: ivyleaf morningglory (Ipomoea hederacea, IPOHE); assay: Post-emerge herbicidal activity, greenhouse screen, IPOHE
Source text: as §1, §2, §3, §4, §5

[15] = system: lambsquarters (Chenopodium album, CHEAL); assay: Post-emerge herbicidal activity, greenhouse screen, CHEAL
Source text: as §1, §2, §3, §4, §5

[16] = system: common ragweed (Ambrosia artemisiifolia L., AMBEL); assay: Post-emerge herbicidal activity, greenhouse screen, AMBEL
Source text: as §1, §2, §3, §4, §5

[17] = system: green foxtail (Setaria viridis, SETVI); assay: Post-emerge herbicidal activity, greenhouse screen, SETVI
Source text: as §1, §2, §3, §4, §5

[18] = system: barnyardgrass (Echinochloa crus-galli, ECHCG); assay: Post-emerge herbicidal activity, greenhouse screen, ECHCG
Source text: as §1, §2, §3, §4, §5

[19] = system: johnsongrass (Sorghum halepense, SORHA); assay: Post-emerge herbicidal activity, greenhouse screen, SORHA
Source text: as §1, §2, §3, §4, §5

[20] = system: large crabgrass (Digitaria sanguinalis, DIGSA); assay: Post-emerge herbicidal activity, greenhouse screen, DIGSA
Source text: as §1, §2, §3, §4, §5

Row | Compound | Pre-emerge Herbicidal Activity AMARE ([1]; 63 g ai/ha) | Pre-emerge Herbicidal Activity AMARE ([1]; 250 g ai/ha) | Pre-emerge Herbicidal Activity ABUTH ([2]; 63 g ai/ha) | Pre-emerge Herbicidal Activity ABUTH ([2]; 250 g ai/ha) | Pre-emerge Herbicidal Activity CASOB ([3]; 63 g ai/ha) | Pre-emerge Herbicidal Activity CASOB ([3]; 250 g ai/ha) | Pre-emerge Herbicidal Activity IPOHE ([4]; 63 g ai/ha) | Pre-emerge Herbicidal Activity IPOHE ([4]; 250 g ai/ha) | Pre-emerge Herbicidal Activity CHEAL ([5]; 63 g ai/ha) | Pre-emerge Herbicidal Activity CHEAL ([5]; 250 g ai/ha) | Pre-emerge Herbicidal Activity AMBEL ([6]; 63 g ai/ha) | Pre-emerge Herbicidal Activity AMBEL ([6]; 250 g ai/ha) | Pre-emerge Herbicidal Activity SETVI ([7]; 63 g ai/ha) | Pre-emerge Herbicidal Activity SETVI ([7]; 250 g ai/ha) | Pre-emerge Herbicidal Activity ECHCG ([8]; 63 g ai/ha) | Pre-emerge Herbicidal Activity ECHCG ([8]; 250 g ai/ha) | Pre-emerge Herbicidal Activity SORHA ([9]; 63 g ai/ha) | Pre-emerge Herbicidal Activity SORHA ([9]; 250 g ai/ha) | Pre-emerge Herbicidal Activity DIGSA ([10]; 63 g ai/ha) | Pre-emerge Herbicidal Activity DIGSA ([10]; 250 g ai/ha) | further results
1 | Cn1c(C(F)(F)F)cc(=O)n(-c2c(F)cc(Cl)c3ncoc23)c1=S [Compound 1-1, 3-(4-chloro-6-fluoro-1,3-benzoxazol-7-yl)-1-methyl-2-thioxo-6-(trifluoromethyl)-2,3-dihydropyrimidin4(1H)-one] | 100 | 100 | 100 | 100 | 100 | 100 | 100 | 100 | 100 | 100 | 100 | 100 | 100 | 100 | 100 | 100 | 100 | 100 | 100 | 100 | Post-emerge Herbicidal Activity AMARE ([11]; 63 g ai/ha): 100; Post-emerge Herbicidal Activity AMARE ([11]; 250 g ai/ha): 100; Post-emerge Herbicidal Activity ABUTH ([12]; 63 g ai/ha): 100; Post-emerge Herbicidal Activity ABUTH ([12]; 250 g ai/ha): 100; Post-emerge Herbicidal Activity CASOB ([13]; 63 g ai/ha): 100; Post-emerge Herbicidal Activity CASOB ([13]; 250 g ai/ha): 100; Post-emerge Herbicidal Activity IPOHE ([14]; 63 g ai/ha): 100; Post-emerge Herbicidal Activity IPOHE ([14]; 250 g ai/ha): 100; Post-emerge Herbicidal Activity CHEAL ([15]; 63 g ai/ha): 100; Post-emerge Herbicidal Activity CHEAL ([15]; 250 g ai/ha): 100; Post-emerge Herbicidal Activity AMBEL ([16]; 63 g ai/ha): 100; Post-emerge Herbicidal Activity AMBEL ([16]; 250 g ai/ha): 100; Post-emerge Herbicidal Activity SETVI ([17]; 63 g ai/ha): 100; Post-emerge Herbicidal Activity SETVI ([17]; 250 g ai/ha): 100; Post-emerge Herbicidal Activity ECHCG ([18]; 63 g ai/ha): 100; Post-emerge Herbicidal Activity ECHCG ([18]; 250 g ai/ha): 100; Post-emerge Herbicidal Activity SORHA ([19]; 63 g ai/ha): 95; Post-emerge Herbicidal Activity SORHA ([19]; 250 g ai/ha): 100; Post-emerge Herbicidal Activity DIGSA ([20]; 63 g ai/ha): 95; Post-emerge Herbicidal Activity DIGSA ([20]; 250 g ai/ha): 99
2 | Cc1cc2c(-n3c(=O)cc(C(F)(F)F)n(C)c3=S)c(F)cc(Cl)c2o1 [Compound 2-2, 3-(7-chloro-5-fluoro-2-methyl-1-benzofuran-4-yl)-1-methyl-2-thioxo-6-(trifluoromethyl)-2,3-dihydropyrimidin-4(1H)-one] | 100 | 100 | 100 | 100 | 99 | 100 | 99 | 99 | 100 | 100 | 100 | 100 | 100 | 100 | 99 | 100 | 100 | 100 | 100 | 100 | Post-emerge Herbicidal Activity AMARE ([11]; 63 g ai/ha): 100; Post-emerge Herbicidal Activity AMARE ([11]; 250 g ai/ha): 100; Post-emerge Herbicidal Activity ABUTH ([12]; 63 g ai/ha): 100; Post-emerge Herbicidal Activity ABUTH ([12]; 250 g ai/ha): 100; Post-emerge Herbicidal Activity CASOB ([13]; 63 g ai/ha): 100; Post-emerge Herbicidal Activity CASOB ([13]; 250 g ai/ha): 100; Post-emerge Herbicidal Activity IPOHE ([14]; 63 g ai/ha): 100; Post-emerge Herbicidal Activity IPOHE ([14]; 250 g ai/ha): 100; Post-emerge Herbicidal Activity CHEAL ([15]; 63 g ai/ha): 100; Post-emerge Herbicidal Activity CHEAL ([15]; 250 g ai/ha): 100; Post-emerge Herbicidal Activity AMBEL ([16]; 63 g ai/ha): 100; Post-emerge Herbicidal Activity AMBEL ([16]; 250 g ai/ha): 100; Post-emerge Herbicidal Activity SETVI ([17]; 63 g ai/ha): 100; Post-emerge Herbicidal Activity SETVI ([17]; 250 g ai/ha): 100; Post-emerge Herbicidal Activity ECHCG ([18]; 63 g ai/ha): 100; Post-emerge Herbicidal Activity ECHCG ([18]; 250 g ai/ha): 100; Post-emerge Herbicidal Activity SORHA ([19]; 63 g ai/ha): 100; Post-emerge Herbicidal Activity SORHA ([19]; 250 g ai/ha): 100; Post-emerge Herbicidal Activity DIGSA ([20]; 63 g ai/ha): 85; Post-emerge Herbicidal Activity DIGSA ([20]; 250 g ai/ha): 100
3 | Cn1c(C(F)(F)F)cc(=O)n(-c2c(F)cc(Cl)c3nc(C(C)(C)C)oc23)c1=S [Compound 1-3, 3-[2-t-butyl-4-chloro-6-fluoro-1,3-benzoxazol-7-yl]-1-methyl-2-thioxo-6-(trifluoromethyl)-2,3-dihydropyrimidin-4(1H)-one] | 100 | 100 | 100 | 100 | 95 | 100 | 95 | 100 | 100 | 100 | 99 | 100 | 100 | 100 | 100 | 100 | 100 | 100 | 100 | 100 | Post-emerge Herbicidal Activity AMARE ([11]; 63 g ai/ha): 100; Post-emerge Herbicidal Activity AMARE ([11]; 250 g ai/ha): 100; Post-emerge Herbicidal Activity ABUTH ([12]; 63 g ai/ha): 100; Post-emerge Herbicidal Activity ABUTH ([12]; 250 g ai/ha): 100; Post-emerge Herbicidal Activity CASOB ([13]; 63 g ai/ha): 70; Post-emerge Herbicidal Activity CASOB ([13]; 250 g ai/ha): 100; Post-emerge Herbicidal Activity IPOHE ([14]; 63 g ai/ha): 100; Post-emerge Herbicidal Activity IPOHE ([14]; 250 g ai/ha): 100; Post-emerge Herbicidal Activity CHEAL ([15]; 63 g ai/ha): 100; Post-emerge Herbicidal Activity CHEAL ([15]; 250 g ai/ha): 100; Post-emerge Herbicidal Activity AMBEL ([16]; 63 g ai/ha): 99; Post-emerge Herbicidal Activity AMBEL ([16]; 250 g ai/ha): 100; Post-emerge Herbicidal Activity SETVI ([17]; 63 g ai/ha): 99; Post-emerge Herbicidal Activity SETVI ([17]; 250 g ai/ha): 100; Post-emerge Herbicidal Activity ECHCG ([18]; 63 g ai/ha): 100; Post-emerge Herbicidal Activity ECHCG ([18]; 250 g ai/ha): 100; Post-emerge Herbicidal Activity SORHA ([19]; 63 g ai/ha): 65; Post-emerge Herbicidal Activity SORHA ([19]; 250 g ai/ha): 85; Post-emerge Herbicidal Activity DIGSA ([20]; 63 g ai/ha): 50; Post-emerge Herbicidal Activity DIGSA ([20]; 250 g ai/ha): 65

— US20040018941A1, “Fused-benzene derivatives of thiouracil, herbicidal and desiccant compositions contaning them” (ISHIHARA SANGYO KAISHA, LTD., priority 2002, published 2004)
